What was measured:
Format in all cases: binding
Mth373 [1] = target: T1, Mth373 (Methanothermobacter thermautotrophicus, UniProt O26473); assay: X-ray crystal structure ([…] and […] Å); conditions: 2.0 mM NADH added; coenzyme site of each monomer; printed as NADH, NAD(H) and NAD
T1 construct: gene MTH_373; recombinant hexahistidine-tagged, E. coli LOBSTR BL21*; 311-residue monomer; dimer

Mth375 [2] = target: T2, Mth375 (Methanothermobacter thermautotrophicus, UniProt O26475); assay: X-ray crystal structure ([…] Å); conditions: coenzyme site (Rossmann fold); no coenzyme added (co-purified); redox state not settled (NAD/NADH/NAD(H) printed); UDP bound
T2 construct: gene MTH_375; recombinant hexahistidine-tagged (pET100D), E. coli BL21-Rosetta 2; 332 residues seen; dimer; Cys131 (and Cys13 in Mth375_NU) modified by beta-mercaptoethanol

Mth375 [3] = target: T2, Mth375; assay: X-ray crystal structure ([…] and […] Å); conditions: co-crystallised with 1.0 mM UDP; active site; NAD(H) (6PNL) or AMP (6PMH) also bound; 21 °C
Mth373 [4] = target: T1, Mth373; assay: X-ray crystal structure ([…] Å); conditions: co-crystallised with 1.0 mM UDP and 2.0 mM NADH; active site of both monomers; pH 5.0; UDP also in one monomer of 9AR1

T2 sequence (O26475 entry or part of it): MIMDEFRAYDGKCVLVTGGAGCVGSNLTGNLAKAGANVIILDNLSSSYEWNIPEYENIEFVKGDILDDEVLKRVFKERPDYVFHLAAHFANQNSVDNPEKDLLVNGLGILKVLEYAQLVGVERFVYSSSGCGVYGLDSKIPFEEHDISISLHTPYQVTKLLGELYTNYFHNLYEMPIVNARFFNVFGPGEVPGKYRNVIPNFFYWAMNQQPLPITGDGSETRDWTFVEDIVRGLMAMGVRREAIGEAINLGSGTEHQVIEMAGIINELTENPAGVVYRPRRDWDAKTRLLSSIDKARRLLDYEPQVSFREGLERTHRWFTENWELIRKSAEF
T1 sequence (O26473 entry or part of it): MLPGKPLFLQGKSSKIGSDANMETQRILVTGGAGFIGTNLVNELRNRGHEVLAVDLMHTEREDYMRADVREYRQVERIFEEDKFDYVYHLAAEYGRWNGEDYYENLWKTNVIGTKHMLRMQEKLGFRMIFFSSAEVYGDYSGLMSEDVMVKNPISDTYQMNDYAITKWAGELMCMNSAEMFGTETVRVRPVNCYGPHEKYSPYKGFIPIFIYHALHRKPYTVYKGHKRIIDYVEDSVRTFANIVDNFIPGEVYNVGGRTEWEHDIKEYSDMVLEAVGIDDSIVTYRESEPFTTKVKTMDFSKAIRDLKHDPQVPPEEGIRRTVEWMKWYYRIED

Structure (SMILES): NC(=O)C1=CN([C@@H]2O[C@H](COP(=O)(O)OP(=O)(O)OC[C@H]3O[C@@H](n4cnc5c(N)ncnc54)[C@H](O)[C@@H]3O)[C@@H](O)[C@H]2O)C=CC1 [NADH]
- X-ray crystal structure (1.96 and 2.00 Å) (Mth373 [1]): Both complexes have interpretable electron density for a molecule of NADH
- X-ray crystal structure (2.01 Å) (Mth375 [2]): Mth375_NU contained a single NADH molecule

Structure (SMILES): O=c1ccn([C@@H]2O[C@H](COP(=O)(O)OP(=O)(O)O)[C@@H](O)[C@H]2O)c(=O)[nH]1 [UDP]
- X-ray crystal structure (2.01 and 2.30 Å) (Mth375 [3]): A single molecule of UDP was bound to each Mth375 complex
- X-ray crystal structure (2.00 Å) (Mth373 [4]): A single molecule of UDP was bound to each active site of the Mth373_NU dimer
